This is an account of results in patent US20220089568A1 (Janssen Biotech, Inc., priority 2019, published 2022).

As a reminder, the EC50 is the midpoint of the concentration-response curve. Read a low EC50 as higher potency in that assay.

The subject of experiment [1] is MOLM-13 cells. Put plainly: MOLM-13 Cellular Assay. Format: cell-based. To be noted: Homo sapiens, 72 hours exposure, cell viability by CellTiter-Glo. How it is done: The day prior to assay set-up, cells were pelleted, resuspended in fresh media, counted, and cells were plated at 0.4×10^6 cell/mL in a T150 flask. […] Cells were exposed to different concentrations of test compounds at 37° C., 5% CO2 for 72 hours immediately after seeding.
(In general: In ATP-based viability assays light output follows the ATP content of the culture.)

For experiment [2], the target named is T1, human DHODH (Homo sapiens, UniProt Q02127).
T1 construct: purchased Proteros PR-0044
Put plainly: DHODH Enzymatic Assay. Format: biochemical. To be noted: purified human DHODH; DCIP absorbance, end-point mode. An outline of the steps: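 Purified human DHODH activity read as absorbance of DCIP, the terminal electron acceptor, in […] pH 7.5, 150 mM NaCl, 0.5 mM EDTA, 0.1% Triton X-100. Reaction started with a substrate mix of 20 mM DHO, 5 mM CoQ6 and 1 mM DCIP in assay buffer.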

T1 sequence (Q02127 whole entry): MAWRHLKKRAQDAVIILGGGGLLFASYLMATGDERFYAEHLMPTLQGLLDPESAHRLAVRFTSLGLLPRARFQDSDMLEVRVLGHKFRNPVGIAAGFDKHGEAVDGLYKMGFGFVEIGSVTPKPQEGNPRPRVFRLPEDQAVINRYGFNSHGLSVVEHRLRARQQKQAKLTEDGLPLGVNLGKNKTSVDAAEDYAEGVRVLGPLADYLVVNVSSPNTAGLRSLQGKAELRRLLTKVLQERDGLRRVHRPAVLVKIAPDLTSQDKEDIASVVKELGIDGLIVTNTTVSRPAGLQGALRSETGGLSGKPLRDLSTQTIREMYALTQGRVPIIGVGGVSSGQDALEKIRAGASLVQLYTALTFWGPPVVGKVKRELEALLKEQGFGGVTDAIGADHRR

On to `CCn1c(CO)nn(-c2nc(O[C@@H](C)C(F)(F)F)c(C(=O)Nc3c(OC)ccnc3OC)cc2F)c1=O` [Example 93, N-(2,4-Dimethoxy-3-pyridyl)-6-[4-ethyl-3-(hydroxymethyl)-5-oxo-1,2,4-triazol-1-yl]-5-fluoro-2-[(1S)-2,2,2-trifluoro-1-methyl-ethoxy]pyridine-3-carboxamide], for which the values for the concentration giving a half-maximal response (EC50) in experiment [1] and in experiment [2] were 4.14 nM and 13.8 nM, respectively.

On to `CCn1c(CO)nn(-c2nc(O[C@@H](C)C(F)(F)F)c(C(=O)Nc3c(OC)ncnc3OC)cc2F)c1=O` [Example 94, N-(4,6-Dimethoxypyrimidin-5-yl)-6-[4-ethyl-3-(hydroxymethyl)-5-oxo-1,2,4-triazol-1-yl]-5-fluoro-2-[(1S)-2,2,2-trifluoro-1-methyl-ethoxy]pyridine-3-carboxamide], for which the EC50 in experiment [1] was 48 nM; in experiment [2], more than 33 nM.

Turning to `CCn1c(CO)nn(-c2nc(O[C@@H](C)C(F)(F)F)c(C(=O)Nc3c[nH]nc3C(F)(F)F)cc2F)c1=O` [Example 95, 6-[4-Ethyl-3-(hydroxymethyl)-5-oxo-1,2,4-triazol-1-yl]-5-fluoro-2-[(1S)-2,2,2-trifluoro-1-methyl-ethoxy]-N-[3-(trifluoromethyl)-1H-pyrazol-4-yl]pyridine-3-carboxamide], the EC50 in experiment [1] came to 1.23 nM; in experiment [2], 2.09 nM.

For `CCn1c(CF)nn(-c2nc(O[C@@H](C)C(F)(F)F)c(C(=O)Nc3c(C)n[nH]c3Cl)cc2F)c1=O` [Example 96, N-(5-Chloro-3-methyl-1H-pyrazol-4-yl)-6-[4-ethyl-3-(fluoromethyl)-5-oxo-1,2,4-triazol-1-yl]-5-fluoro-2-[(1S)-2,2,2-trifluoro-1-methyl-ethoxy]pyridine-3-carboxamide], the EC50 in experiment [1] came out at 0.32 nM; in experiment [2], 0.382 nM.

For the molecule `CCn1c(CF)nn(-c2nc(OC(C)C)c(C(=O)Nc3c(C)ccnc3Cl)cc2F)c1=O` [Example 97, N-(2-Chloro-4-methyl-3-pyridyl)-6-[4-ethyl-3-(fluoromethyl)-5-oxo-1,2,4-triazol-1-yl]-5-fluoro-2-isopropoxy-pyridine-3-carboxamide], the EC50 in experiment [1] is 1.06 nM; in experiment [2], 1.15 nM.

As to `CCn1c(CO)nn(-c2nc(O[C@@H](C)C(F)(F)F)c(C(=O)Nc3cc(OC)ncc3Cl)cc2F)c1=O` [Example 98, N-(5-Chloro-2-methoxy-4-pyridyl)-6-[4-ethyl-3-(hydroxymethyl)-5-oxo-1,2,4-triazol-1-yl]-5-fluoro-2-[(1S)-2,2,2-trifluoro-1-methyl-ethoxy]pyridine-3-carboxamide], the values for the EC50 in experiment [1] and in experiment [2] were 41.6 nM and 91.4 nM, respectively.

As to `CCCn1c(CF)nn(-c2nc(O[C@@H](C)C(F)(F)F)c(C(=O)Nc3c(C)n[nH]c3Cl)cc2F)c1=O` [Example 99, N-(5-Chloro-3-methyl-1H-pyrazol-4-yl)-5-fluoro-6-[3-(fluoromethyl)-5-oxo-4-propyl-1,2,4-triazol-1-yl]-2-[(1S)-2,2,2-trifluoro-1-methyl-ethoxy]pyridine-3-carboxamide], the EC50 in experiment [1] stood at 0.38 nM; in experiment [2], 0.975 nM.

For the molecule `CCn1c(CO)nn(-c2nc(O[C@@H](C)C(F)(F)F)c(C(=O)Nc3c[nH]nc3C#N)cc2F)c1=O` [Example 100, N-(3-Cyano-1H-pyrazol-4-yl)-6-[4-ethyl-3-(hydroxymethyl)-5-oxo-1,2,4-triazol-1-yl]-5-fluoro-2-[(1S)-2,2,2-trifluoro-1-methyl-ethoxy]pyridine-3-carboxamide], the EC50 in experiment [1] is 19 nM; in experiment [2], more than 100 nM.

For `Cc1ccnc(Cl)c1NC(=O)c1cc(F)c(-n2nc(CF)n(CCCO)c2=O)nc1O[C@@H](C)C(F)(F)F` [Example 101, N-(2-Chloro-4-methyl-3-pyridyl)-5-fluoro-6-[3-(fluoromethyl)-4-(3-hydroxypropyl)-5-oxo-1,2,4-triazol-1-yl]-2-[(1S)-2,2,2-trifluoro-1-methyl-ethoxy]pyridine-3-carboxamide], the concentration for a half-maximal effect (EC50) in experiment [1] came out at 19.4 nM; in experiment [2] it was 39.4 nM.

On to `CCn1c(CO)nn(-c2nc(O[C@@H](C)C(F)(F)F)c(C(=O)Nc3c(Cl)ncc(C)c3C)cc2F)c1=O` [Example 102, N-(2-Chloro-4,5-dimethyl-3-pyridyl)-6-[4-ethyl-3-(hydroxymethyl)-5-oxo-1,2,4-triazol-1-yl]-5-fluoro-2-[(1S)-2,2,2-trifluoro-1-methyl-ethoxy]pyridine-3-carboxamide], for which the values for the EC50 in experiment [1] and in experiment [2] were 1.39 nM and 20.1 nM, respectively.

In the case of `CCn1c(CO)nn(-c2nc(O[C@@H](C)C(F)(F)F)c(C(=O)Nc3c(OC)cc(C)nc3C)cc2F)c1=O` [Example 103, 6-[4-ethyl-3-(hydroxymethyl)-5-oxo-1,2,4-triazol-1-yl]-5-fluoro-N-(4-methoxy-2,6-dimethyl-3-pyridyl)-2-[(1S)-2,2,2-trifluoro-1-methyl-ethoxy]pyridine-3-carboxamide], the EC50 in experiment [1] is 17.3 nM; in experiment [2], more than 100 nM.

With `CCn1c(CO)nn(-c2nc(O[C@@H](C)C(F)(F)F)c(C(=O)Nc3nccc(OC)c3Cl)cc2F)c1=O` [Example 104, N-(3-Chloro-4-methoxy-2-pyridyl)-6-[4-ethyl-3-(hydroxymethyl)-5-oxo-1,2,4-triazol-1-yl]-5-fluoro-2-[(1S)-2,2,2-trifluoro-1-methyl-ethoxy]pyridine-3-carboxamide], the concentration for a half-maximal effect (EC50) in experiment [1] stood at 7.59 nM; in experiment [2] it was 6.62 nM.

Regarding `CCOc1ccnc(NC(=O)c2cc(F)c(-n3nc(CO)n(CC)c3=O)nc2O[C@@H](C)C(F)(F)F)c1Cl` [Example 105, N-(3-Chloro-4-ethoxy-2-pyridyl)-6-[4-ethyl-3-(hydroxymethyl)-5-oxo-1,2,4-triazol-1-yl]-5-fluoro-2-[(1S)-2,2,2-trifluoro-1-methyl-ethoxy]pyridine-3-carboxamide], the concentration giving a half-maximal response (EC50) in experiment [1] was 4.6 nM; in experiment [2], 3.4 nM.

As for `CCn1c(CO)nn(-c2nc(O[C@@H](C)C(F)(F)F)c(C(=O)Nc3c(C)cc(OC)nc3Cl)cc2F)c1=O` [Example 106, N-(2-Chloro-6-methoxy-4-methyl-3-pyridyl)-6-[4-ethyl-3-(hydroxymethyl)-5-oxo-1,2,4-triazol-1-yl]-5-fluoro-2-[(1S)-2,2,2-trifluoro-1-methyl-ethoxy]pyridine-3-carboxamide], the values for the EC50 in experiment [1] and in experiment [2] were 0.792 nM and 2.9 nM, respectively.

Regarding `Cc1[nH]nc(Cl)c1NC(=O)c1cc(F)c(-n2nc(CF)n(CCCO)c2=O)nc1O[C@@H](C)C(F)(F)F` [Example 107, N-(3-Chloro-5-methyl-1H-pyrazol-4-yl)-5-fluoro-6-[3-(fluoromethyl)-4-(3-hydroxypropyl)-5-oxo-1,2,4-triazol-1-yl]-2-[(1S)-2,2,2-trifluoro-1-methyl-ethoxy]pyridine-3-carboxamide], the EC50 was found to be 1.5 nM in experiment [1] and 18.1 nM in experiment [2].

Turning to `CCn1c(CF)nn(-c2nc(OC(C)C)c(C(=O)Nc3c(C)n[nH]c3Cl)cc2F)c1=O` [Example 108, N-(5-Chloro-3-methyl-1H-pyrazol-4-yl)-6-[4-ethyl-3-(fluoromethyl)-5-oxo-1,2,4-triazol-1-yl]-5-fluoro-2-isopropoxy-pyridine-3-carboxamide], the EC50 in experiment [1] was 0.17 nM; in experiment [2], 0.851 nM.

On to `CCn1c(CO)nn(-c2nc(O[C@@H](C)C(F)(F)F)c(C(=O)Nc3ccnnc3OC)cc2F)c1=O` [Example 109, 6-[4-Ethyl-3-(hydroxymethyl)-5-oxo-1,2,4-triazol-1-yl]-5-fluoro-N-(3-methoxypyridazin-4-yl)-2-[(1S)-2,2,2-trifluoro-1-methyl-ethoxy]pyridine-3-carboxamide], for which the EC50 in experiment [1] and in experiment [2] was more than 100 nM each time.

As to `CCn1c(CO)nn(-c2nc(O[C@@H](C)C(F)(F)F)c(C(=O)Nc3c(Cl)cnc(OC)c3C)cc2F)c1=O` [Example 110, N-(5-Chloro-2-methoxy-3-methyl-4-pyridyl)-6-[4-ethyl-3-(hydroxymethyl)-5-oxo-1,2,4-triazol-1-yl]-5-fluoro-2-[(1S)-2,2,2-trifluoro-1-methyl-ethoxy]pyridine-3-carboxamide], the EC50 in experiment [1] was 0.282 nM; in experiment [2] it was 0.367 nM.

`CCn1c(CO)nn(-c2nc(O[C@@H](C)C(F)(F)F)c(C(=O)Nc3c(C)n[nH]c3C(F)(F)F)cc2F)c1=O` [Example 111, 6-[4-Ethyl-3-(hydroxymethyl)-5-oxo-1,2,4-triazol-1-yl]-5-fluoro-N-[3-methyl-5-(trifluoromethyl)-1H-pyrazol-4-yl]-2-[(1S)-2,2,2-trifluoro-1-methyl-ethoxy]pyridine-3-carboxamide]: the EC50 in experiment [1] was 0.345 nM; in experiment [2] it was 1.93 nM.

For `CCn1c(CO)nn(-c2nc(O[C@@H](C)C(F)(F)F)c(C(=O)Nc3c(Cl)n[nH]c3C(F)(F)F)cc2F)c1=O` [Example 112, N-[3-Chloro-5-(trifluoromethyl)-1H-pyrazol-4-yl]-6-[4-ethyl-3-(hydroxymethyl)-5-oxo-1,2,4-triazol-1-yl]-5-fluoro-2-[(1S)-2,2,2-trifluoro-1-methyl-ethoxy]pyridine-3-carboxamide], the figures for the EC50 in experiment [1] and in experiment [2] were 0.303 nM and 4.12 nM, respectively.

On to `CCn1c(CO)nn(-c2nc(O[C@@H](C)C(F)(F)F)c(C(=O)Nc3c(C)cc(Cl)nc3OC)cc2F)c1=O` [Example 113, N-(6-Chloro-2-methoxy-4-methyl-3-pyridyl)-6-[4-ethyl-3-(hydroxymethyl)-5-oxo-1,2,4-triazol-1-yl]-5-fluoro-2-[(1S)-2,2,2-trifluoro-1-methyl-ethoxy]pyridine-3-carboxamide], for which the EC50 in experiment [1] turned out to be 0.416 nM; in experiment [2], 1.07 nM.
